US20110070329A1, “1-tert-Butylcyclohexanecarboxamide and uses thereof as cooling compounds” (priority 2009, published 2011)
Entries after “also recorded” stand apart in the source; their conditions may differ.

Columns and labels:
[1] = Flavor evaluation, tasted in water at 10 ppm
Description: After expectorating, cooling began to build over time. The residual cooling (approx. five minutes) after expectorating earned a rating of 4 while when the cooler was in mouth, it was rated a 1 (on a scale of 1 to 9) when tasted in water at 10 ppm.

[2] = Chewing gum evaluation by trained descriptive analysis panel; conditions: level 0.20%
Procedure: The following gum base formulation was prepared: […]
Structure III by itself at levels detailed in the Table III was blended with the gum base in a Sigma mixer. The resultant chewing gum blend was then manufactured into strips 1 inch in width and 0.1 inches in thickness. These strips were cut into lengths of 3 inches each.
Samples were profiled by a highly trained descriptive analysis panel. The ballot consisted of the following terms: Total impact, total mint, cooling-mouth closed, cooling—breath in, nasal cooling—breathe in, throat irritation, bitterness, tongue irritation, numbing. Each attribute was rated at discrete time points including 1 minute, 3 minutes, 5 minutes, 10 minutes, 20 minutes, and 30 minutes.

[3] = Evaluation of cooler mixed with fondant
Description: In this example, Structure III was mixed with a fondant, commercially available from Confectionary House, Troy, N.Y., at levels listed in Table 1.

| Compound | flavor properties when tasted in water [1] | Time and Evaluation (chewing gum) ([2]; 0-1 minute) | Time and Evaluation (chewing gum) ([2]; 1-3 minutes) | Time and Evaluation (chewing gum) ([2]; 3-5 minutes) | Time and Evaluation (chewing gum) ([2]; 5-10 minutes) | Time and Evaluation (chewing gum) ([2]; 10-20 minutes) | Time and Evaluation (chewing gum) ([2]; 20-30 minutes) | COMMENTS (cooling evaluation in fondant) ([3]; 50 ppm) | COMMENTS (cooling evaluation in fondant) ([3]; 100 ppm) | residual cooling rating after expectorating ([1]; approx. five minutes after expectorating, scale of 1 to 9) | cooling rating when the cooler was in mouth ([1]; in mouth, scale of 1 to 9) |
| --- | --- | --- | --- | --- | --- | --- | --- | --- | --- | --- | --- |
| CC(C)(C)C1(C(=O)Nc2ccc(CC#N)cc2)CCCCC1 [Structure I, 1-tert-butyl-N-[4-(cyanomethyl)phenyl]cyclohexanecarboxamide] | bitter upfront, intense cooling upon expectorating | – | – | – | – | – | – | – | – | – | – |
| CC(C)(C)C1(C(=O)NCCc2ccccn2)CCCCC1 [Structure II, 1-tert-butyl-N-[2-(pyridine-2-yl)ethyl]cyclohexanecarboxamide] | honey, cream soda, slightly bitter, cooling flavor properties after about thirty seconds | – | – | – | – | – | – | – | – | – | – |
| CC(C)(C)C1(C(=O)NCc2ccccn2)CCCCC1 [Structure III, 1-tert-butyl-N-[(pyridine-2-yl)methyl]cyclohexanecarboxamide] | did not have much cooling except on breath-in. After expectorating, cooling began to build over time | Sweet, citrus. Not cooling slightly bitter | Cooling is perceivable, but weak. | bitterness., cooling very weak; also recorded: More cooling. Cooling when breathing. Little | Cooling is all over the mouth. Some bitterness; also recorded: is perceivable, very slight cooling again very; also recorded: weak | Cooling is all over the mouth but not very; also recorded: intensive., little to no cooling | More bitterness is perceivable. Cooling is; also recorded: moderate and slowly starting to decline; also recorded: little to no cooling | Slight cooling but quick onset, fills mouth | Quick onset slight bitterness perceived | 4 | 1 |
